According to publication PMC10762035, “Molecular basis of human trace amine-associated receptor 1 activation” (Nature Communications, 2024):
Residue numbers refer to the chain shown, from its start. Where “and” joins values, the source holds several entries; their conditions need not be identical. Equal entries are not always repeated.

Key:
Assay type in all cases: cell-based
[1] = molecular target: T1, hTA1 T271N (Homo sapiens, UniProt Q96RJ0, T271N); assay: GloSensor cAMP accumulation assay, T271N mutant
T1 construct: expressed in transfected cells; host or cells: HEK293T
T1 sequence (Q96RJ0 1-339 T271N): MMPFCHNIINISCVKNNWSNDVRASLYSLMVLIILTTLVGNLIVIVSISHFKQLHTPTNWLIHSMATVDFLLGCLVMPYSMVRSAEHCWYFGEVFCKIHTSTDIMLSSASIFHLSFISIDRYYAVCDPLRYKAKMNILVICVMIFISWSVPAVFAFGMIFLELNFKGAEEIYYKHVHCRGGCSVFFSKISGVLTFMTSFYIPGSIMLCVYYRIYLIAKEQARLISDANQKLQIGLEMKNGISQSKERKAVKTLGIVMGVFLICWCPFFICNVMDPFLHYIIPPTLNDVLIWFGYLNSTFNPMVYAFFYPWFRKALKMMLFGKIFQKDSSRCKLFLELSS

[2] = molecular target: T2, hTA1 C13S (Homo sapiens, UniProt Q96RJ0, C13S); assay: GloSensor cAMP accumulation assay, C13S mutant; details: for C13S - Normalized Luminescence Counts (N=2): log[Compound], single wells
T2 construct: expressed in transfected cells; host or cells: HEK293T
T2 sequence (Q96RJ0 1-339 C13S): T1 sequence (Q96RJ0 1-339 T271N) with C13S, N271T

[3] = molecular target: T3, hTA1 I290N (Homo sapiens, UniProt Q96RJ0, I290N); assay: GloSensor cAMP accumulation assay, I290N mutant;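 note: cells transiently co-expressing hTA1 and the GloSensor cAMP biosensor, luminescence read 30 min after compound addition at room temperature, efficacy scaled to the maximal β-PEA response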
T3 construct: expressed in transfected cells; host or cells: HEK293T
T3 sequence (Q96RJ0 1-339 I290N): T1 sequence (Q96RJ0 1-339 T271N) with N271T, I290N

[4] = molecular target: T4, hTA1 W264F (Homo sapiens, UniProt Q96RJ0, W264F); assay: GloSensor cAMP accumulation assay, W264F mutant;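 note: cells transiently transfected with receptor plus GloSensor, luminescence read 30 min after agonist addition at room temperature, concentration-response curves fitted by log(agonist) vs response regression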
T4 construct: expressed in transfected cells; host or cells: HEK293T
T4 sequence (Q96RJ0 1-339 W264F): T1 sequence (Q96RJ0 1-339 T271N) with W264F, N271T

[5] = molecular target: T5, hTA1 b2N (Homo sapiens, UniProt Q96RJ0); assay: GloSensor cAMP accumulation assay, b2N construct; details: b2N, n=2
T5 construct: read by me as the first 25 residues of β2AR (N); expressed in transfected cells; host or cells: HEK293T

[6] = molecular target: T6, hTA1 C178S (Homo sapiens, UniProt Q96RJ0, C178S); assay: GloSensor cAMP accumulation assay, C178S mutant; details: for C178S - Normalized Luminescence Counts (N=2): log[Compound], single replicates
T6 construct: expressed in transfected cells; host or cells: HEK293T
T6 sequence (Q96RJ0 1-339 C178S): T1 sequence (Q96RJ0 1-339 T271N) with C178S, N271T

[7] = C178S, each row one experiment (N=2), 3 replicates

T5 sequence (Q96RJ0 with tags, fused parts or gaps): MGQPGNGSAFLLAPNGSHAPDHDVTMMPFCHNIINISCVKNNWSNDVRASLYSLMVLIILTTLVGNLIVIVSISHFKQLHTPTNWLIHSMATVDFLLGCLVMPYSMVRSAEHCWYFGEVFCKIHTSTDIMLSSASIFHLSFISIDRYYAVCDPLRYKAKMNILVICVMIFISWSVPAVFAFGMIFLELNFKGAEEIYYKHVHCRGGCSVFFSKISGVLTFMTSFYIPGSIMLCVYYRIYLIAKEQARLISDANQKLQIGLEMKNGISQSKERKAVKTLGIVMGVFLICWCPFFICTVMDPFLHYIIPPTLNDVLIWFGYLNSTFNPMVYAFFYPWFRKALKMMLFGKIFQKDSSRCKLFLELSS

Cc1c(F)cccc1[C@H]1COC(N)=N1 [Ro5263397]
ΔpEC50 values (each mutant value - WT average), Mean ([1]; T271N mutant minus WT average, Figure 5B): -0.511 and -0.5494
pEC50 values, Mean ([1]; T271N mutant, Figure 5B, each row one independent experiment (3 replicates)): 8.32 and 8.282
Emax values, Mean ([1]; T271N mutant, Figure 5B, β-PEA = 100, each row one independent experiment (3 replicates)): 116.619 and 99.549
Span ± SEM (Emax normalized to β-PEA) ([1]; T271N, n=2): 108.08 ± 8.54
pEC50 ± SEM ([1]; T271N, n=2): 8.3 ± 0.07
EC50 ([1]; T271N, n=2, read-out: EC50): 5 nM
Emax values ([2]; C13S, Mean of fit per experiment): 73.5469 and 88.9072
Span ± SEM (Emax normalized to β-PEA) ([2]; C13S, n=2): 81.23 ± 7.68
pEC50 ± SEM ([2]; C13S, n=2): 8.6 ± 0.08
EC50 ([2]; C13S, n=2, read-out: EC50): 2.48 nM
pEC50 values, Mean ([2]; hTA1 C13S, mean of 3 replicates, one line per independent experiment): 8.7547 and 8.4539
C13S - Normalized Luminescence Counts (N=2) ([2]; M = -5): 76.1278 and 93.1423 and 84.8444 and 95.4829 and 105.462 and 103.819
C13S - Normalized Luminescence Counts (N=2) ([2]; M = -5.522): 68.8196 and 89.374 and 78.4497 and 85.6471 and 106.265 and 88.9317
C13S - Normalized Luminescence Counts (N=2) ([2]; M = -6): 64.1759 and 93.599 and 66.6881 and 75.8649 and 92.3769 and 86.7896
C13S - Normalized Luminescence Counts (N=2) ([2]; M = -6.522): 56.487 and 80.4671 and 60.7882 and 74.8831 and 89.3601 and 80.042
Span ± SEM (Emax normalized to β-PEA) ([3]; I290N, n=2): 83.69 ± 1.69
pEC50 ± SEM ([3]; I290N, n=2): 8.33 ± 0.07
EC50 ([3]; I290N, n=2, read-out: EC50): 4.63 nM
cAMP accumulation response, single replicate values (source data, Supplementary Figure 5) ([3]; hTA1 I290N (N=2), log[Compound], M = -5): 101.804 and 110.08 and 95.4137 and 103.531
ΔpEC50 values (each mutant value - WT average), Mean ([3]; hTA1 I290N mutant minus WT average): -0.535 and -0.459
pEC50 values, Mean ([3]; hTA1 I290N mutant, Figure 3B source data, each grid row a separate experiment, 3 replicates): 8.296 and 8.372
Emax values, Mean ([3]; hTA1 I290N mutant, β-PEA set to 100, each grid row a separate experiment, 3 replicates): 85.3822 and 81.9937
ΔEmax values (each mutant value - WT average) ([4]; W246F mutant (so in the source) minus WT average): -34.1318
pEC50 values, Mean ([4]; W246F mutant (so in the source), each line an independent experiment, 3 replicates): 5.605 and 5.96
Emax values, Mean ([4]; W246F mutant (so in the source), β-PEA = 100, each line an independent experiment, 3 replicates): 52.5716 and 62.1592
decrease in potency vs wild type ([4]; W264F): more than 1000 fold
Span ± SEM (Emax normalized to β-PEA) ([4]; W264F, n=2): 57.37 ± 4.79
pEC50 ± SEM ([4]; W264F, n=2): 5.78 ± 0.06
Span ± SEM (Emax normalized to β-PEA) [5]: 78.31 ± 9.88
pEC50 ± SEM [5]: 9.18 ± 0.09
EC50 ([5]; read-out: EC50): 0.66 nM
pEC50 values, Mean [6, 7]: 8.162 and 8.579
ΔpEC50 values (each mutant value - WT average), Mean [6, 7]: -0.6693 and -0.2522
Span ± SEM (Emax normalized to β-PEA) ([6]; C178S, n=2): 105.17
pEC50 ± SEM ([6]; C178S, n=2): 8.37 ± 0.09
EC50 ([6]; C178S, n=2, read-out: EC50): 4.26 nM
Emax ([6]; C178S, relative to β-PEA): 105.2%
Emax values, Mean ([6]; C178S, β-PEA = 100, each row one experiment (N=2), 3 replicates): 92.0056 and 118.332
C178S - Normalized Luminescence Counts (N=2) ([6]; M = -5): 116.512 and 98.9884 and 102.82 and 110.453 and 111.171 and 57.8292
C178S - Normalized Luminescence Counts (N=2) ([6]; M = -5.522): 90.6706 and 92.2127 and 73.4274 and 137.917 and 164.274 and 131.185
C178S - Normalized Luminescence Counts (N=2) ([6]; M = -6): 100.344 and 93.0071 and 81.792 and 122.18 and 154.88 and 155.328
C178S - Normalized Luminescence Counts (N=2) ([6]; M = -6.522): 92.3996 and 91.979 and 98.7081 and 121.313 and 114.761 and 110.333
C178S - Normalized Luminescence Counts (N=2) ([6]; M = -7): 78.9882 and 76.0443 and 77.119 and 120.565 and 138.096 and 118.74
C178S - Normalized Luminescence Counts (N=2) ([6]; M = -7.522): 86.6519 and 72.9134 and 81.9322 and 98.8752 and 109.017 and 95.5544
C178S - Normalized Luminescence Counts (N=2) ([6]; M = -8): 48.9411 and 58.2403 and 50.0626 and 103.512 and 85.5323 and 112.428
C178S - Normalized Luminescence Counts (N=2) ([6]; M = -8.522): 29.268 and 30.1559 and 35.3428 and 67.4924 and 67.6121 and 48.0464
C178S - Normalized Luminescence Counts (N=2) ([6]; M = -9): 15.623 and 14.3146 and 15.5763 and 45.7428 and 46.9395 and 50.4398
C178S - Normalized Luminescence Counts (N=2) ([6]; M = -9.522): 4.128 and 7.025 and 6.23 and 17.8303 and 18.7278 and 23.3949
C178S - Normalized Luminescence Counts (N=2) ([6]; M = -10): 3.707 (2×) and 2.258 and 5.325 and 8.915 and 9.424
C178S - Normalized Luminescence Counts (N=2) ([6]; M = -10.522): 1.885 and 0.4359 and 0.8097 and 2.513 and 2.752 and 5.684
C178S - Normalized Luminescence Counts (N=2) ([6]; M = -11): 0.4826 and 1.043 and -0.5921 and 4.667 and 6.223 and 4.577
C178S - Normalized Luminescence Counts (N=2) ([6]; M = -11.522): 0.9967 and 0.3892 and 0.01533 and 3.919 and 5.445 and 4.457
C178S - Normalized Luminescence Counts (N=2) ([6]; M = -12): 2.258 and 1.511 (2×) and 2.7223 and 4.936 and 4.158
C178S - Normalized Luminescence Counts (N=2) ([6]; M = -12.522): 0.1555 and 0.7163 and 0.9032 and 5.3849 and 3.7993 and 4.607
